Reference: patent publication US12495798B2, “Nicotinamide compound and herbicidal composition comprising compound” (KOREA RESEARCH INSTITUTE OF CHEMICAL TECHNOLOGY, priority 2019, dated 2025)

Tests used:
Format in all cases: in vivo
crabgrass = assay: Herbicidal activity test against upland field weeds (foliar treatment test); conditions: 50 g ai/ha, scale 0-100; for pest or weed control at 50 g/ha: Digitaria sanguinalis
Summary of the method: (§1)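 Visual 0–100 control ratings relative to untreated plants, taken 14 (or 21) days after spraying foliage at 50 or 75 g a.i./ha. Spray solution: 50% acetone with 0.1% Tween-20; plants kept in greenhouse at 30±5 °C, 14 h light/10 h dark.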

fall panicum = assay: as above; conditions: 50 g ai/ha, scale 0-100; for pest or weed control at 50 g/ha: Panicum dichotomiflorum
Summary of the method: as §1

velvetleaf = assay: as above; set-up: key to Foliar treatment herbicidal activity, velvet leaf: 0 (no control); 100 (complete control); conditions: 50 g ai/ha; for pest or weed control at 50 g/ha: Abutilon theophrasti, scale 0-100, read-out: Foliar treatment herbicidal activity, velvet leaf
Summary of the method: as §1

corn = assay: Phytotoxicity test for upland field crops (foliar treatment test); set-up: key: 0 (no harm); 9 (complete withered)
Summary of the method: (§2)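 Post-emergence spray at 19–300 g a.i./ha (acetone/Tween-20 diluent, 100 ml/m²) onto greenhouse-grown plants. Damage rated 7 and 14 (optionally 21) days later on a 0–9 scale relative to untreated plants.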

wheat = assay: as above; set-up: key: 0 (no harm); 9 (complete withered)
Summary of the method: as §2

cocklebur = assay: Herbicidal activity test against upland field weeds (foliar treatment test); conditions: 50 g ai/ha, scale 0-100; for pest or weed control at 50 g/ha: Xanthium strumarium
Summary of the method: as §1

quack grass = assay: as above; set-up: key to Foliar treatment herbicidal activity, quack grass: 0 (no control); 100 (complete control); conditions: 50 g ai/ha, scale 0-100
Summary of the method: as §1

barnyard grass = assay: as above; conditions: 50 g ai/ha, scale 0-100; for pest or weed control at 50 g/ha: Echinochloa crus-galli
Summary of the method: as §1

bindweed = assay: as above; conditions: 50 g ai/ha, scale 0-100
Summary of the method: as §1

sorghum = assay: as above; conditions: 50 g ai/ha, scale 0-100; for plant injury at 50 g/ha: Sorghum
Summary of the method: as §1

black nightshade = assay: as above; set-up: key to Foliar treatment herbicidal activity, black nightshade: 0 (no control); 100 (complete control); conditions: 50 g ai/ha, scale 0-100; for pest or weed control at 50 g/ha: Solanum nigrum
Summary of the method: as §1

indian jointvetch = assay: as above; set-up: key to Foliar treatment herbicidal activity, Indian jointvetch: 0 (no control); 100 (complete control); conditions: 50 g ai/ha, scale 0-100
Summary of the method: as §1

[1] = 50 g ai/ha, Corn (7 days after treatment)
[2] = 50 g ai/ha, Corn (14 days after treatment)
[3] = 100 g ai/ha, Corn (7 days after treatment)
[4] = 100 g ai/ha, Corn (14 days after treatment)
[5] = 50 g ai/ha, Wheat (7 days after treatment)
[6] = 50 g ai/ha, Wheat (14 days after treatment)
[7] = 100 g ai/ha, Wheat (7 days after treatment)
[8] = 100 g ai/ha, Wheat (14 days after treatment)

Row | SMILES | pest or weed control at 50 g/ha (crabgrass) [%] | pest or weed control at 50 g/ha (fall panicum) [%] | pest or weed control at 50 g/ha (velvetleaf) [%] | Foliar treatment phytotoxicity, Corn (corn; [1]) | Foliar treatment phytotoxicity, Corn (corn; [2]) | Foliar treatment phytotoxicity, Corn (corn; [3]) | Foliar treatment phytotoxicity, Corn (corn; [4]) | Foliar treatment phytotoxicity, Wheat (wheat; [5]) | Foliar treatment phytotoxicity, Wheat (wheat; [6]) | Foliar treatment phytotoxicity, Wheat (wheat; [7]) | Foliar treatment phytotoxicity, Wheat (wheat; [8]) | pest or weed control at 50 g/ha (cocklebur) [%] | Foliar treatment herbicidal activity, quack grass (quack grass) | pest or weed control at 50 g/ha (barnyard grass) [%] | pest or weed control at 50 g/ha (bindweed) [%] | plant injury at 50 g/ha (sorghum) [%] | pest or weed control at 50 g/ha (black nightshade) [%] | pest or weed control at 50 g/ha (indian jointvetch) [%] | Foliar treatment herbicidal activity, Indian jointvetch (indian jointvetch) | Foliar treatment herbicidal activity, black nightshade (black nightshade) | other results
1 | C=Cc1nc(COCc2nc(C(F)(F)F)ccc2C(=O)Nc2nnnn2C)nn1C [Compound No. 2-127, N-(1-methyl-1H-tetrazol-5-yl)-2-(((1-methyl-5-vinyl-1H-1,2,4-triazol-3-yl)methoxy)methyl)-6-(trifluoromethyl)nicotinamide] | 60 | 40 | 30 | 0 | 0 | 0 | 0 | 0 | 0 | 0 | 0 | 60 | 0 | 60 | 50 | 30 | 80 | 20 |  |  | 
2 | C=C(C)c1nc(COCc2nc(C(F)(F)F)ccc2C(=O)Nc2nnnn2C)nn1C [Compound No. 2-128, N-(1-methyl-1H-tetrazol-5-yl)-2-(((1-methyl-5-(prop-1-en-2-yl)-1H-1,2,4-triazol-3-yl)methoxy)methyl)-6-(trifluoromethyl)nicotinamide] | 60 | 70 | 70 | 1 | 0 | 2 | 0 | 0 | 0 | 0 | 0 | 50 | 0 | 60 | 40 | 20 | 90 |  | 0 |  | 
3 | Cn1nnnc1NC(=O)c1ccc(C(F)(F)F)nc1COCc1nc(S(C)(=O)=O)n(C)n1 [Compound No. 2-132, N-(1-methyl-1H-tetrazol-5-yl)-2-(((1-methyl-5-(methylsulfonyl)-1H-1,2,4-triazol-3-yl)methoxy)methyl)-6-(trifluoromethyl)nicotinamide] | 98 | 50 | 98 | 0 | 0 | 0 | 0 | 3 | 2 | 3 | 2 | 98 | 0 | 98 | 70 | 30 |  | 20 |  | 100 | 
4 | Cn1nc(COCc2nc(C(F)(F)F)ccc2C(=O)Nc2nnnn2C)nc1I [Compound No. 2-137] |  |  |  | 0 | 0 | 0 | 0 | 0 | 0 | 0 | 0 |  | 0 |  |  |  |  |  | 100 | 100 | Foliar treatment herbicidal activity, Crabgrass (crabgrass): 95; Foliar treatment herbicidal activity, Fall panicum (fall panicum): 50; Foliar treatment herbicidal activity, velvet leaf (velvetleaf; scale 0-100): 100; Foliar treatment herbicidal activity, Cocklebur (cocklebur): 98; Foliar treatment herbicidal activity, barnyard grass (barnyard grass): 95; Foliar treatment herbicidal activity, Bindweed (bindweed): 70; Foliar treatment herbicidal activity, Sorghum (sorghum): 60
